{
  "source": "patent US12447170B2",
  "about": "“Use of maribavir in treatment regimens” (priority 2021, dated 2025)",
  "key": {"[1]": {"assay": "PBPK simulation of maribavir with ketoconazole (CYP3A4 inhibitor)", "design": "species or system human", "method": "A comparison of observed and predicted plasma concentrations of maribavir following a single oral dose of 400 mg administered in the absence of ketoconazole (a CYP3A4 inhibitor) and 1 hour after a single 400 mg dose of ketoconazole to healthy subjects was performed."}, "CYP1A2": {"biological_target": "T1, CYP1A2 (Homo sapiens, UniProt P05177)", "T1 sequence (P05177 1-516)": "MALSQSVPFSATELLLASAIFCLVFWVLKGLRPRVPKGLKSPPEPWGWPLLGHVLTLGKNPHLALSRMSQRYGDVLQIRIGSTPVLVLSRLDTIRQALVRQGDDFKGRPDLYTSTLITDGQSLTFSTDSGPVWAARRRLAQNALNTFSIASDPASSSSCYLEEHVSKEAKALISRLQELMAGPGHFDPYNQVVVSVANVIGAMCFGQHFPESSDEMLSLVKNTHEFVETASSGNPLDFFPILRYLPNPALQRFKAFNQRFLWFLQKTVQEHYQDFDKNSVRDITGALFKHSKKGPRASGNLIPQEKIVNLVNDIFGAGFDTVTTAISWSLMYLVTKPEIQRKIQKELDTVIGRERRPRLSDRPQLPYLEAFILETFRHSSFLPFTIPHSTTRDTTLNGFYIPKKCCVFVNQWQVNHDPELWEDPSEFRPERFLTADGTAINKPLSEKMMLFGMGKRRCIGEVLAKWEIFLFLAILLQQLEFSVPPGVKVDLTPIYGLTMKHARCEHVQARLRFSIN", "assay": "Reversible CYP inhibition in human liver microsomes (HLM)", "format": "in vitro ADME", "design": "from tissue; host or cells: human liver microsomes", "method": "(§1) HLM were used to evaluate maribavir's half maximal inhibitory concentration (IC50) on inhibition of activities of nine CYP isoforms. Probe substrates were phenacetin (CYP1A2), coumarin (CYP2A6), bupropion (CYP2B6), paclitaxel (CYP2C8), tolbutamide (CYP2C9), (S)-mephenytoin (CYP2C19), dextromethorphan (CYP2D6), clorzoxazone (CYP2E1), and midazolam and testosterone (CYP3A4).\n(§2) CYP activities with 0, 0.1, 0.3, 1, 3, 10, 30, and 100 μM of maribavir were evaluated."}, "CYP2D6": {"biological_target": "CYP2D6 (Homo sapiens, UniProt P10635)", "sequence (P10635 whole entry)": "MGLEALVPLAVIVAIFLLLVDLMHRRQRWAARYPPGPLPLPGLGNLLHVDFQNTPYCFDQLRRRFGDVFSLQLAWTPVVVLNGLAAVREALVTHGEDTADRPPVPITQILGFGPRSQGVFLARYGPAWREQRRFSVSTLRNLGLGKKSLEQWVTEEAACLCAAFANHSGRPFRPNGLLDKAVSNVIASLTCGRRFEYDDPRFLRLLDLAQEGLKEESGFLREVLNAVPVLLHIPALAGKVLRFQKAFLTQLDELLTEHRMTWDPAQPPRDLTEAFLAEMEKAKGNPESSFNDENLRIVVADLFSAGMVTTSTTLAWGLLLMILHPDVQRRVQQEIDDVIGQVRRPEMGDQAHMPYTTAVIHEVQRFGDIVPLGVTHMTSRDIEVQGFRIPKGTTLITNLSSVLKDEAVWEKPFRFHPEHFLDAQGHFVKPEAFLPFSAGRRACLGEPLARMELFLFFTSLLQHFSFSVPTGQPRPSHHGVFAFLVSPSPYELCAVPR", "assay": "Reversible CYP inhibition in human liver microsomes (HLM)", "format": "in vitro ADME", "design": "from tissue; host or cells: human liver microsomes", "details": "up to 100 μM", "method": "as §1, §2"}, "CYP2C9": {"biological_target": "CYP2C9 (Homo sapiens, UniProt P11712)", "sequence (P11712 whole entry)": "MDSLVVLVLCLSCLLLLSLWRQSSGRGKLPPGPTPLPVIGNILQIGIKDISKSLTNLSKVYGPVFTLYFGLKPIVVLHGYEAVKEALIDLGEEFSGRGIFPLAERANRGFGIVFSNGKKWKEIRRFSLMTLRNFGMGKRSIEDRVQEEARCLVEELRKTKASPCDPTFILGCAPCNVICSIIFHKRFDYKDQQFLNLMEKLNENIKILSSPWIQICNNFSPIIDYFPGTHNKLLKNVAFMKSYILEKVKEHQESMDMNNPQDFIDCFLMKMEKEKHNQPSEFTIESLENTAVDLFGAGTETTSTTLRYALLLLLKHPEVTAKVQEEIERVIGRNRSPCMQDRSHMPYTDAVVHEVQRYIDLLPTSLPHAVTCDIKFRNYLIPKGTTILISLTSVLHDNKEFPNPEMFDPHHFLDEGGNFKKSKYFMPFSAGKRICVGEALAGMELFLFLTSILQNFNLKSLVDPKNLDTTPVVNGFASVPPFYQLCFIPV", "assay": "Reversible CYP inhibition in human liver microsomes (HLM)", "format": "in vitro ADME", "design": "from tissue; host or cells: human liver microsomes", "method": "as §1, §2"}, "CYP2C19": {"biological_target": "CYP2C19 (Homo sapiens, UniProt P33261)", "sequence (P33261 whole entry)": "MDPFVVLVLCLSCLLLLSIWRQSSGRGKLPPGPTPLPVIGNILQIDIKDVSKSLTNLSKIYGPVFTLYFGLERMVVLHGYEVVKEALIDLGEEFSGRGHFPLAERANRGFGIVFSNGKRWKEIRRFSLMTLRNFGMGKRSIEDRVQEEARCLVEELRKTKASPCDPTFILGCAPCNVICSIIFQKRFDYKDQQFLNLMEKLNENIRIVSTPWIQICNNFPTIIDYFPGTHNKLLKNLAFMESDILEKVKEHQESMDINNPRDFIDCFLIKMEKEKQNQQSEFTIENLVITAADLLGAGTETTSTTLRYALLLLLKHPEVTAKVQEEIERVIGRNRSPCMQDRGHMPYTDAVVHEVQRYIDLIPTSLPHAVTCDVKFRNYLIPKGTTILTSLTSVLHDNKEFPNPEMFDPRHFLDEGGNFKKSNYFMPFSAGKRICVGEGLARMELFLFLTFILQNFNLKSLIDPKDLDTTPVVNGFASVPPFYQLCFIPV", "assay": "Reversible CYP inhibition in human liver microsomes (HLM)", "format": "in vitro ADME", "design": "from tissue; host or cells: human liver microsomes", "method": "as §1, §2"}, "CYP2C8": {"biological_target": "T2, CYP2C8 (Homo sapiens, UniProt P10632)", "T2 sequence (P10632 1-490)": "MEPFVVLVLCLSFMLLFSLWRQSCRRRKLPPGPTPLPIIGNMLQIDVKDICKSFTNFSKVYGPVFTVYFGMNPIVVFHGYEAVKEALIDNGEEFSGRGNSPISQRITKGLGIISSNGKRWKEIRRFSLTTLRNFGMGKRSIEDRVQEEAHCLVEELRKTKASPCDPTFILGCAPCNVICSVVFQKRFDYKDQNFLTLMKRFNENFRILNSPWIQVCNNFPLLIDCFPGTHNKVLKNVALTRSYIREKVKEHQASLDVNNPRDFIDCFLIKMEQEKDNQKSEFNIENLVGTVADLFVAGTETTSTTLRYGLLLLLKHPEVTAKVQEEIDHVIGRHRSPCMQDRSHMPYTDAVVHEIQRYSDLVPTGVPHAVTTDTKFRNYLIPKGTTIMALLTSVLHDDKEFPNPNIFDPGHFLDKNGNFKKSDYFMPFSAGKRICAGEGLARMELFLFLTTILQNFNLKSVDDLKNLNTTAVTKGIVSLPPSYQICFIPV", "assay": "Reversible CYP inhibition in human liver microsomes (HLM)", "format": "in vitro ADME", "design": "from tissue; host or cells: human liver microsomes", "details": "up to 100 μM", "method": "as §1, §2"}, "[2]": {"design": "species or system human", "details": "human, in vivo", "excerpt": "Accumulated data have shown that maribavir is metabolized primarily in the liver, and renal clearance is a minor route (representing less than 5 percent). VP 44469 (N-dealkylated Maribavir) was the principal metabolite of maribavir in both urine and feces. In plasma, unchanged maribavir and VP 44469 represented approximately 69% and 9.8% of total radioactivity, respectively. The hepatic metabolism of maribavir was primarily driven by cytochrome P450s. CYP3A4 and CYP1A2 were responsible for 70 to 85% and 15 to 30% of the CYP-driven pathways, respectively. Glucuronidation accounted for less than 20% of metabolism.\nDistribution models evaluated included a full PBPK model and a minimal PBPK model, both of which consider liver and intestinal metabolism. Mass balance data from the [^14C] ADME study indicated a fraction absorbed of 0.83 or greater following oral administration of 400 mg dose of maribavir. Absorption models evaluated included a simple first-order absorption model and a more mechanistic “Advanced Dissolution Absorption and Metabolism” (ADAM) model."}, "[3]": {"design": "species or system human", "details": "in vivo", "excerpt": "It can be taken with or without food, and no dose adjustment is needed in patients with mild-to-moderate hepatic impairment or renal impairment. Maribavir has a low drug-interaction potential and there are minimal dose adjustments required (for example, only when taken concurrently with CYP3A4 inducers or certain immunosuppressants) and there are no effects on QT interval."}, "[4]": {"details": "maribavir 400 mg single dose 1 hour after ketoconazole 400 mg"}},
  "note": "“Also recorded” adds a separate entry of the source.",
  "data": [
    {"compound": "CC(C)Nc1nc2cc(Cl)c(Cl)cc2n1[C@H]1O[C@@H](CO)[C@H](O)[C@@H]1O", "note": "[maribavir, (2S,3S,4R,5S)-2-(5,6-dichloro-2-(isopropylamino)-1H-benzo[d]imidazol-1-yl)-5-(hydroxymethyl)tetrahydrofuran-3,4-diol]", "values": [
      {"measurement": "AUC(0-∞), GEOMEAN RATIO PREDICTED/OBSERVED", "setting": "[1]; [4]", "result": 0.77},
      {"measurement": "AUC(0-∞), MEAN RATIO PREDICTED/OBSERVED", "setting": "[1]; [4]", "result": 0.78},
      {"measurement": "Cmax, GEOMEAN RATIO PREDICTED/OBSERVED", "setting": "[1]; [4]", "result": 0.65},
      {"measurement": "Cmax, MEAN RATIO PREDICTED/OBSERVED", "setting": "[1]; [4]", "result": 0.66},
      {"measurement": "Ratio AUC(0-∞), GEOMEAN RATIO PREDICTED/OBSERVED", "setting": "[1]; with/without ketoconazole", "result": 1.00},
      {"measurement": "Ratio AUC(0-∞), MEAN RATIO PREDICTED/OBSERVED", "setting": "[1]; with/without ketoconazole", "result": 0.99},
      {"measurement": "Ratio Cmax, GEOMEAN RATIO PREDICTED/OBSERVED", "setting": "[1]; with/without ketoconazole", "result": 1.06},
      {"measurement": "Ratio Cmax, MEAN RATIO PREDICTED/OBSERVED", "setting": "[1]; with/without ketoconazole", "result": 1.05},
      {"measurement": "IC50", "setting": "CYP1A2", "result": 40, "unit": "µM"},
      {"measurement": "reversible inhibition of CYP2D6", "setting": "CYP2D6", "result": "not a reversible inhibitor; also recorded: no significant inhibition"},
      {"measurement": "IC50", "setting": "CYP2C9", "result": 18, "unit": "µM"},
      {"measurement": "IC50", "setting": "CYP2C19", "result": 35, "unit": "µM"},
      {"measurement": "reversible inhibition of CYP2C8", "setting": "CYP2C8", "result": "not a reversible inhibitor; also recorded: no significant inhibition"},
      {"measurement": "contribution of CYP1A2 to the CYP-driven pathways", "setting": "[2]", "result": "15-30%"},
      {"measurement": "contribution of CYP3A4 to the CYP-driven pathways", "setting": "[2]", "result": "70-85%"},
      {"measurement": "share of metabolism by glucuronidation", "setting": "[2]", "result": "less than 20%"},
      {"measurement": "share of total radioactivity in plasma", "setting": "[2]", "result": "approximately 69%"},
      {"measurement": "effects on QT interval", "setting": "[3]", "result": "no effects"}
    ]}
  ]
}
